Test results: patent publication US12516049B2, “Sulfonylurea ring substituted monocyclic β-lactam antibiotics” (priority 2019, dated 2026)
In brackets after ≈: the same amount, converted by molar mass.

Key:
Type in all cases: cell-based
[1] = system: Enterobacter cloacae ATCC BAA-1143 (AmpC); experiment: MIC, micro-liquid dilution (CLSI); settings: ATCCBAA1143, E. cloacae ATCC BAA-1143, Class C (AmpC), 20-24 h, 37° C.
Procedure: (§1) Three strains of Klebsiella pneumonia, ATCC BAA-205 (TEM-1/SHV-1/SHV-12), ATCC BAA-1705 (KPC-2), ATCC BAA-2470 (NDM-1), Enterobacter cloacae ATCC BAA-1143 (AmpC), two strains of Escherichia coli ATCC BAA-2523 (OXA-48), ATCC 25922 were used to determine the minimum inhibitory concentration (MIC) of each of the compounds by micro-liquid dilution method according to the Institute of Clinical and Laboratory Standard (CLSI) requirements. […]. The plate was placed upside down at 37° C. and the MIC value was read after 20-24 h of incubation, and the lowest drug concentration that inhibited the growth of bacteria was set as MIC. Colony-Forming Units (CFU) refer to the total number of bacterial colonies per unit volume.

[2] = system: Escherichia coli ATCC 25922; experiment: MIC, micro-liquid dilution (CLSI); settings: ATCC25922, E. coli ATCC 25922, 20-24 h, 37° C.
Procedure: as §1

[3] = system: Escherichia coli ATCC BAA-2523 (OXA-48); experiment: MIC, micro-liquid dilution (CLSI); settings: ATCCBAA2523
Procedure: as §1

[4] = system: Klebsiella pneumonia ATCC BAA-1705 (KPC-2); experiment: MIC, micro-liquid dilution (CLSI); settings: Klebsiella pneumoniae, ATCCBAA1705; K. pneumonia ATCC BAA-1705, Class A (KPC-2); 20-24 h, 37° C.
Procedure: as §1

[5] = system: Klebsiella pneumonia ATCC BAA-205 (TEM-1/SHV-1/SHV-12); experiment: MIC, micro-liquid dilution (CLSI); settings: Klebsiella pneumoniae, ATCCBAA205; K. pneumonia ATCC BAA-205, Class A (TEM-1/SHV-1/SHV-12); 20-24 h, 37° C.
Procedure: as §1

[6] = system: Klebsiella pneumonia ATCC BAA-2470 (NDM-1); experiment: MIC, micro-liquid dilution (CLSI); settings: Klebsiella pneumoniae, ATCCBAA2470; K. pneumonia ATCC BAA-2470, Class B (NDM-1); 20-24 h, 37° C.
Procedure: as §1

[7] = system: K.p 115004; experiment: MIC, two-fold agar dilution, clinical isolate
Procedure: (§2) The minimum inhibitory concentration (MIC) of the compound and combination with β-lactamase (MBLs) inhibitors against clinically isolated carbapenem-resistant enterobacteriaceae was determined by the two-fold agar dilution method to determine the activity of the compound to be tested against strains producing MBLs. Antibiotics and enzyme inhibitors were weighed separately and dissolved in sterile ultrapure water or dimethyl sulfoxide to prepare mother liquor, MHA medium was prepared, pH was adjusted to 7.2-7.4, and it was sterilized at 121° C. for 15 minutes and placed in a 55° C. water bath for heat preservation. The mother liquor was diluted to the concentration to be tested by double dilution method, an inoculum liquid was prepared by direct bacterial suspension method, 1 mL of the prepared bacteria solution was withdrawn and putted into the inoculation tube, and a positioning needle and an inoculation needle were installed. A bacterial multi-point inoculator was started for inoculation. After the bacterial solution was absorbed by the agar, the plate was placed upside down in an incubator at 37° C. for 16-20 hours, and the results were observed. The average of three tests was taken.

[8] = system: K.p CRE11; experiment: MIC, two-fold agar dilution, clinical isolate
Procedure: as §2

[9] = system: K.p HX77; experiment: MIC, two-fold agar dilution, clinical isolate; settings: single drug, average of three tests
Procedure: as §2

[10] = system: E.coli 115101; experiment: MIC, two-fold agar dilution, clinical isolate; settings: Escherichia coli; E.coli 115101; single drug; average of three tests; read-out: MIC
Procedure: as §2, with “Antibiotics and enzyme inhibitors were weighed separately and dissolved in sterile ultrapure water or dimethyl sulfoxide to prepare mother liquor, MHA medium was prepared, pH was adjusted to 7.2-7.4, and it was sterilized at 121° C. for 15 minutes and placed in a 55° C. water bath for heat preservation.” left out

[11] = system: E.coli 115105; experiment: MIC, two-fold agar dilution, clinical isolate; settings: Escherichia coli, single drug, average of three tests
Procedure: as §2, with “Antibiotics and enzyme inhibitors were weighed separately and dissolved in sterile ultrapure water or dimethyl sulfoxide to prepare mother liquor, MHA medium was prepared, pH was adjusted to 7.2-7.4, and it was sterilized at 121° C. for 15 minutes and placed in a 55° C. water bath for heat preservation.” left out

[12] = system: K.p HX30; experiment: MIC, two-fold agar dilution, clinical isolate; settings: K.p HX30; single drug; average of three tests; read-out: MIC
Procedure: as §2, with “Antibiotics and enzyme inhibitors were weighed separately and dissolved in sterile ultrapure water or dimethyl sulfoxide to prepare mother liquor, MHA medium was prepared, pH was adjusted to 7.2-7.4, and it was sterilized at 121° C. for 15 minutes and placed in a 55° C. water bath for heat preservation.” left out

SMILES: NC[C@@H]1CN(C[C@@H]2[C@H](NC(=O)/C(=N\OC3(C(=O)O)CC3)c3csc(N)n3)C(=O)N2S(=O)(=O)O)S(=O)(=O)N1 [Compound 4]
- MIC [1]: 0.5 µg/mL (≈ 0.858 µM)
- MIC [2]: 0.25 µg/mL (≈ 0.429 µM)
- MIC [3]: 0.125 µg/mL (≈ 0.215 µM)
- MIC [4]: 1 µg/mL (≈ 1.72 µM)
- MIC [5]: 0.5 µg/mL (≈ 0.858 µM)
- MIC [6]: 0.25 µg/mL (≈ 0.429 µM)
- MIC [7]: 0.125 µg/mL
- MIC [8]: 0.125 µg/mL
- MIC [9]: 0.03 µg/mL
- MIC [10]: 0.5 µg/mL
- MIC [11]: 1 µg/mL
- MIC [12]: 0.5 µg/mL
